Assay results reported in patent US6274334A, “Monoclonal antibody, cell line and immunoassay for ractopamine” (The United States of America as represented by the …, priority 2000, dated 2001).
“And” between values parts separate entries of the source, which are not always exact repeats. Identical values can stand only once. Counter-ions that a name gives are not always drawn.

What was measured:
[1] = system: antibody produced by hybridoma 5G10; experiment: Competitive indirect ELISA for specificity of the 5G10 antibody (buffer); type: binding, mouse; conditions: for IC50: means of three separate experiments on three different days, racemic ractopamine average of 15 experiments; for Cross-reactivity: ratio of IC50 for racemic ractopamine to that of test compound times 100; for poorer ligand relative to (1R,3R) stereoisomer of ractopamine: relative to (1R,3R) ractopamine; for competition curve: competitors up to 10,000 ng/mL
Experimental: The supernatant culture fluid from the cloned hybridomas may also be screened to select for those producing antibodies having a high affinity for ractopamine. Affinity may be measured using a variety of well known techniques, such as ELISA, RIA or equilibrium dialysis using labelled ractopamine. Competitive indirect ELISA (CI-ELISA) is preferred, and is conducted at a final antibody concentration (dilution from tissue culture supernatant) to give 50% of maximal binding to a ractopamine coated substrate or assay well. In accordance with this embodiment, the antibody containing supernatant is added to a ractopamine conjugate-coated solid substrate such as the wells of an assay plate, together with a range of concentrations of free ractopamine as a competitor. Following incubation and washing, bound antibody in the wells is determined in the same manner as the indirect-ELISA. Percent inhibition may be calculated as (1-B/B0)×100 where B is the optical density (OD) of a well with a competitor and B0 is the mean OD of the wells without competitor (control). […] However, for even greater accuracy, the affinity may be alternatively measured at 50% inhibition (IC50).
(§1) The checkerboard method was used to determine the optimum amount of coating antigen-ractopamine-glutarate-BSA (0.1 to 1 μg/well), primary antibody (1:4000 to 1:14,000), and secondary antibody (1:5000 to 1:50,000) required for the indirect competition ELISA. […] Ninety-six well flat bottom ELISA plates were coated with 500 ng/well of ractopamine-glutarate-BSA in 50 mM bicarbonate buffer, pH 9.6, and allowed to shake for 2 hours using an orbital shaker after which the plates were washed 5 times with PBST. Excess binding sites in each well were blocked by incubating with a 1% solution of Teleostean® cold water fish gelatin for 1 hour after which each well was washed 5 times with PBST. Primary antibody (5G10), diluted to 1:14,000, was added (50 μL/well) in the presence of competitor (100 μL/well) and was incubated for 1.5 hours. Competitors were incubated at concentrations of 0, 0.1, 0.5, 1, 5, 10, 50, 100, 500, 1000, 5000, and 10,000 ng/mL. A racemic ractopamine calibration curve was used in every experiment as a quality control. Washing wells five times with PBST terminated the reactions. Goat anti-mouse IgG peroxidase conjugate, diluted 1:50,000 (100 μL/well), was incubated for 1 hour. A TMB substrate solution was used during color development (30 min); the color development was stopped by adding 50 μL/well of 2 N H2 SO4. All incubations were conducted at 37° C. The plates were read at 450 nm and the data analyzed using a four-parameter logistic equation for the competitors that produced competition curves.

[2] = system: 5G10 monoclonal antibody; experiment: Competitive ELISA in diluted bovine urine (matrix effects); type: binding, mouse
Experimental: as §1
Ractopamine (0, 0.1, 0.5, 1, 5, 10, 50, 100, 500, 1000, 5000, and 10,000 ng/mL) was added to bovine urine samples diluted 1:2, 1:5, 1:10, and 1:20 with PBST. Urine was collected from a Holstein cow that had not received any ractopamine treatment. Immunoassays in diluted matrices were run according to the procedure described in Example 2. The resulting competition data were fit to a four-parameter logistic equation using the program manager provided by the plate reader (Bio-Rad® Laboratories, Hercules, Calif.) and the IC50 values were determined. The IC50 and B0 from each diluted urine curve were compared with IC50 and B0 values generated from the PBST standard curve. Ractopamine in a 1:10 urine dilution at concentrations of 1, 5, 10, 20 ng/mL were divided and stored at -20° C. until used. For determination of intra-assay variation, each concentration of the spiked urine samples was pipetted into 12 wells, along with the appropriate standard curve ([…], 12 levels) and the data processed using the spiked samples as replicated unknowns. Inter-assay variation was determined in a similar manner on five separate days with duplicate wells for each level of spiked sample.

[3] = system: ractopamine antibody; experiment: Immunoaffinity column retention; type: binding, mouse; conditions: C-14 labeled, eluted with 0-100% MeOH
Experimental: Ten milliliters of acites containing ractopamine antibody were diluted with 0.1 M acetate buffer (1:3) and centrifuged. The diluted ascites was passed through a protein-G column and non-bound material was washed off with 0.1 M acetate buffer, pH 5.0, followed by 0.1 M glycine, pH 2.8 to elute the IgG. The protein concentration was determined by OD280 and confirmed by the method of Bradford. The IgG purity was confirmed by 10% SDS-PAGE. Purified IgG was conjugated with CNBr-Sepharose according to a standard procedure. Five milligrams of IgG was conjugated with 1 mL of CNBr-Sepharose to produce the immunoaffinity beads. The immunoaffinity beads were packed to a screening column. A solution containing approximately equal amounts of C-14 labeled ractopamine and ractopamine glucuronide was applied to the column. The column was subsequently eluted with 0, 10%, 30%, 50%, 70% and 100% MeOH; eluants were collected and counted for C-14 activity to verify recoveries. […] Thus, the ractopamine IAC retained both ractopamine and ractopamine metabolites, and has the potential to be used for the rapid isolation of ractopamine and (or) ractopamine metabolites from solution. Such a technique would have wide application in the preparation of samples undergoing a ractopamine confirmatory assay.

[4] = system: polyclonal antibodies; conditions: polyclonal antibodies generated from rabbits; cited from earlier work
[5] = system: hogs; conditions: dietary, relative to untreated control animals; cited from earlier work
[6] = Wicker et al. 1995; cited from earlier work
[7] = in words; cited from earlier work
[8] = species dosed with ractopamine HCl; cited from earlier work

Row | IC50 [1] | SMILES | Cross-reactivity [1] | other results
1 | 50.3 ± 8.1 ng/mL | CC(CCc1ccc(O)cc1)NCCc1ccc(O)c(O)c1 (racemic) [Dobutamine] | 5.3% | 
2 | 263 ± 20 ng/mL | CC(CCc1ccc(O[C@@H]2O[C@H](C(=O)O)[C@@H](O)[C@H](O)[C@H]2O)cc1)NCC(O)c1ccc(O)cc1 (single isomer, unassigned) [Ractopamine glucuronide A] | 1% | poorer ligand relative to (1R,3R) stereoisomer of ractopamine [1]: over 100 times
3 | 87.8 ± 5.0 ng/mL | CC(CCc1ccc(O[C@@H]2O[C@H](C(=O)O)[C@@H](O)[C@H](O)[C@H]2O)cc1)NCC(O)c1ccc(O)cc1 (single isomer, unassigned) [Ractopamine glucuronide B] | 3.1% | poorer ligand relative to (1R,3R) stereoisomer of ractopamine [1]: over 100 times
4 | 2.6 ng/mL and 2.62 ± 0.08 ng/mL | COc1ccc(C(O)CNC(C)CCc2ccc(O)cc2)cc1 (stereo not drawn) [LY227273] | 103% | 
5 | 1.59 ± 0.09 ng/mL | C[C@H](CCc1ccc(O)cc1)NCCc1ccc(O)cc1 [R-des-OH-ractopamine] | 169% | 
6 | 0.70 ± 0.04 ng/mL | CC(CCc1ccc(O)cc1)NCC(O)c1ccc(O[C@@H]2O[C@H](C(=O)O)[C@@H](O)[C@H](O)[C@H]2O)cc1 (stereo partly drawn) [Ractopamine glucuronide C] | 384% | affinity relative to (1R,3R) ractopamine ([1]; in words): bound to the antibody with an affinity almost as great as (1R,3R) ractopamine; identification as metabolite [8]: has been identified in various species dosed experimentally with ractopamine HCl
7 | 73.8 ± 4.4 ng/mL | CC(NCCc1ccc(O)cc1)C(O)c1ccc(O)cc1 (stereo not drawn) [Ritodrine] | 3.6% | 
8 | 25.2 ± 1.9 ng/mL | C[C@@H](CCc1ccc(O)cc1)NCCc1ccc(O)cc1 [S-des-OH-ractopamine] | 10.7% | 

Second part, the compound before the results:

Row | SMILES | IC50 [1] | Cross-reactivity [1] | other results
9 | CC(CCc1ccc(O)cc1)NCC(O)c1ccc(O)cc1 (racemic) [Ractopamine (racemic), (1R*, 3R*), (1R*, 3S*)-4-hydroxy-β-[[[3-(4-hydroxyphenyl)-1-methylpropyl]amino]methyl]-benzenemethanol hydrochloride] |  | 100% | limit of detection ([1]; 80% B/B0 (IC20)): 0.5 ng/mL; IC50 ([1]; hydrochloride): 2.69 ± 0.36 ng/mL; IC50 ([1]; listed as racemic ractopamine, hydrochloride): 2.7 ng/mL; IC50 ([2]; buffer (PBST)): 2.49 ng/mL; IC50 ([2]; urine dilution 1:2): 11.58 ng/mL; IC50 ([2]; urine dilution 1:5): 4.62 ng/mL; IC50 ([2]; urine dilution 1:10): 3.16 ng/mL; IC50 ([2]; urine dilution 1:20): 3.02 ng/mL; retention on immunoaffinity column [3]: The radioactivity was mainly in the 50% and 100% MeOH fractions; IC50 [4]: 4.2 ng/mL; growth and carcass effects [5]: increased growth rates, feed efficiencies, and greater yields of boneless, closely trimmed retail cuts; cross-reaction in immunoassay kits [6]: cross-react poorly with ractopamine
10 | C[C@H](CCc1ccc(O)cc1)NC[C@H](O)c1ccc(O)cc1 [(1R, 3R) -ractopamine] | 0.55 ± 0.09 ng/mL | 489% | detection limit ([1]; in PBST): 0.1 ng/mL; biological activity [7]: confers biological activity to the molecule
11 | C[C@@H](CCc1ccc(O)cc1)NC[C@H](O)c1ccc(O)cc1 [(1R, 3S) -ractopamine] | 291 ± 32 ng/mL | 0.9% | decrease of antibody binding (factor) ([1]; α-methyl group in (S) configuration): 100
12 | C[C@H](CCc1ccc(O)cc1)NC[C@@H](O)c1ccc(O)cc1 [(1S, 3R) -ractopamine] | 2.00 ± 0.37 ng/mL | 134% | 
13 | C[C@@H](CCc1ccc(O)cc1)NC[C@@H](O)c1ccc(O)cc1 [(1S, 3S) -ractopamine] | 140 ± 23 ng/mL | 1.9% | 
14 | CCCCNCC(O)c1ccc(O)cc1 (stereo not drawn) [Bamethane] | 831 ± 11 ng/mL | 0.3% | 
15 | CC(C)(C)NCC(O)c1cc(Cl)c(N)c(Cl)c1 (stereo not drawn) [Clenbuterol] |  | < 0.1% | competition curve [1]: did not produce competition curves; cross reaction with the 5G10 antibody ([1]; in words): did not cross react with the 5G10 antibody
16 | CC(Cc1ccc(O)cc1)NCC(O)c1cc(O)cc(O)c1 (stereo not drawn) [Fenoterol] | 2682 ± 350 ng/mL | 0.1% | 
17 | CC(COc1ccccc1)NC(C)C(O)c1ccc(O)cc1 (stereo not drawn) [Isoxsuprine] | 1391 ± 127 ng/mL | 0.2% | 
18 | CC(C)(C)NCC(O)c1ccc(O)c(CO)c1 (stereo not drawn) [Salbutamol] |  | < 0.1% | competition curve [1]: did not produce competition curves
19 | OCc1cc(C(O)CNCCCCCCOCCCCc2ccccc2)ccc1O (stereo not drawn) [Salmeterol] | 1519 ± 116 ng/mL | 0.2% | 
